Test results as given in US20180092908A1, “SMALL MOLECULE OXIDIZERS OF PDI AND THEIR USE” (THE TRUSTEES OF COLUMBIA UNIVERSITY IN THE CITY OF NEW YORK, priority 2015, published 2018).
Converted amounts (≈) assume the structure as drawn. Like-named read-outs stand apart in the source and are kept apart here. One block for each molecule: values may come before it.

What was measured:
[1] = molecular target: T1, recombinant catalytic a domain of human PDI A1 (PDIa) (Homo sapiens, UniProt P07237); experiment: Insulin aggregation assay (PDIa reductase activity); format: biochemical; conditions: for Insulin Assay (either active or inactive): Table 5
T1 construct: made in house; host or cells: Escherichia coli BL21-Gold (DE3)
From the text: In this insulin aggregation assay (Xu et al., 2012; Jasuja et al., 2012; Khan et al., 2011; Smith et al., 2004), PDIa reduced the two disulfide bonds between the α- and β-chains of insulin, causing the β-chain to aggregate and precipitate, resulting in an increase in absorbance at 650 nm.
To investigate the mode of binding further and to determine whether the binding was reversible or irreversible, the recovery of enzymatic activity of PDIa after dilution of pre-formed concentrated PDIa-LOC14 complexes was analyzed. LOC14 (750 μM) was incubated with a concentrated solution of PDIa (500 μM). The mixture was then diluted 100-fold and PDI's enzymatic activity was measured in the insulin reduction assay. As a control, the same procedure was also performed on the sample containing an irreversible inhibitor, 16F16 (16F16 at 750 μM and PDIa at 500 μM). […] This illustrated that unlike 16F16, LOC14 binding to PDIa is reversible.

[2] = molecular target: T2, human catalytic PDI A1 a domain (PDIa) (Homo sapiens, UniProt P07237); experiment: Isothermal titration calorimetry (ITC) binding to PDIa; conditions: PDIa
T2 construct: made in house; host or cells: Escherichia coli BL21-Gold (DE3)

Solubility = conditions: for solubility: Table 4
PC12 mHTT^Q103 cells [3] = experiment: Rescue of PC12 cells from mHTT^Q103 induced cell death (Alamar blue viability); format: cell-based; conditions: Rattus norvegicus
From the text: PC12 mHTT^Q103 cells were a gift from Erik S. Schweitzer (UCLA School of Medicine, Los Angeles, Calif.). These cells are stably transfected with the first exon of human HTT gene containing the pathogenic 103 CAG/CAA repeat expansion, under the control of the ecdysteroid promoter (Aiken et al., 2004). The plasmid also contains a Bombyx mori ecdysone receptor gene fused at N-terminal with VP16 transactivation domain (Suhr et al., 1998; Vilaboa et al., 2011). Addition of the ecdysone analog, tebufenozide, to the cell culture medium is used to initiate the transcription of mutant HTT (Aiken et al., 2004).
PC12 mHTT^Q103 cells were cultured in DMEM containing 4.5 g/I glucose, 25 mM HEPES, sodium pyruvate, and no L-glutamine (Mediatech, cat. no. 15-018-CV), supplemented with 10% (v/v) Cosmic Calf serum, 2 mM L-glutamine, 100 units/mL of penicillin-streptomycin, and 0.5 mg/ml active geneticin. Cells were grown at 37° C., 9.5% CO2, and the medium was replaced with fresh medium every 2-3 days. To induce mHTT^Q103 expression for experiments, tebufenozide, a gift from Lynne Moore and Fred H. Gage (The Salk Institute for Biological Studies, La Jolla, Calif.), was added to the medium at 200 nM final concentration from 1 mM stock in 85% ethanol.
LOC mother plates with compounds at 4 mg/ml were thawed and spun down (1000 rpm, 20° C., 1 min) prior to use. Biomek FX (Beckman Coulter) robotic liquid dispenser was used to handle all liquid transferring and mixing. […] Two fold serial dilution was performed across five daughter plates by transferring 50 μl of compounds (at […]) from the D1 plate into 50 μl of PC12 medium in daughter plate D2, mixing, and then repeating the process for the remaining three plates. Daughter plate D1 with compounds at […], daughter plate D3 with compounds at 20 μl/ml and daughter plate D5 with compounds at 5 μl/ml were then used for the screen. Assay plates were set up by seeding tebufenozide-induced PC12 mHTT^Q103 cells into 384-well black, clear-bottom plates (Corning Inc. cat. no. 3712) at a density of 7,500 cells per well in 57 μl PC12 medium without geneticin. Three microliters of compound from the daughter plates (D1, D3, and D5) were added to the assay plates for a final compound concentration of 4 μl/ml, 1 μl/ml, and 0.25 μl/ml. Four wells containing uninduced PC12 mHTT^Q103 cells and four wells containing medium only, were also included on each plate as controls. The assay plates were incubated at 37° C., 9.5% CO2 for 48 hours. Twenty microliters of 40% Alamar blue (Life Technologies cat. no. DAL1100) solution in PC12 medium was added to each well (1:10 final dilution) and the plates were incubated for an additional 12-24 hours at 37° C., 9.5% CO2. Alamar blue fluorescence was read on a fluorescence plate reader (PerkinElmer Victor3) with 530 nm excitation filter and 590 nm emission filter. Each compound concentration was tested in triplicate.
The follow-up testing of primary screen hits was performed in a similar way. Fresh powder stocks of primary hits were re-ordered from vendors, dissolved in DMSO and tested in a two-fold serial dilution across 10 wells in both tebufenozide-induced and uninduced PC12 mHTT^Q103 cells. Dose-response curves were plotted as mean±SD and fit to either four-parameter sigmoidal (for uninduced cells) or bell-shaped (induced) function using Prism (GraphPad Software).
A cascade of two assays was used, involving both a phenotypic high-throughput screening (HTS) assay and an in vitro PDI reductase assay, to identify neuroprotective PDI-inhibiting compounds. […] Alamar blue was used as a fluorescent readout for viability after 48 hours of compound treatment and mHTT^Q103 induction. […] All the candidate hit compounds were re-tested in a two-fold dilution series.

physchem = conditions: DMSO, organic solvent or mixture
PC12 mHTT^Q103 cells [4] = conditions: Hoffstrom et al., 2010; read-out: EC50, rescue of PC12 mHTT^Q103 cells (previously identified inhibitor); cited from earlier work
[5] = molecular target: T1, recombinant catalytic a domain of human PDI A1 (PDIa); experiment: Insulin aggregation assay (PDIa reductase activity); format: biochemical; conditions: compound 750 μM
[6] = molecular target: T2, human catalytic PDI A1 a domain (PDIa); experiment: Isothermal titration calorimetry (ITC) binding to PDIa; conditions: PDIa; remark: listed apart in the source
Experimental: All ITC experiments were carried out at 25° C. on MicoCal Auto-ITC200 system (GE Healthcare). Reduced PDIa was dialyzed into ITC buffer (20 mM sodium phosphate buffer pH 7.8) and loaded into a sample cell at 40 μM concentration. The compound solution was loaded into a syringe at 400 μM in the same ITC buffer with a final DMSO concentration at 0.4% (v/v). ITC titration experiments were carried out at 25° C. with 19 injections, 2 μl per injection, and 180 seconds between each injection. The reference cell power was set to 5 μcal/sec. A control experiment was performed for each compound, where each compound was titrated into buffer to account for heat released due to dilution. This background was subtracted from test data before a final dissociation constant was obtained. Data were analyzed using a one-site binding model in Origin 7.1 software. […] Gibbs free energy, ΔG, was calculated from equation ΔG=ΔH−TΔS. All other parameters, Ka, n, ΔH, ΔS, were determined directly from the titration data.
For ITC experiments with 16F16 pre-treatment, 40 μM PDIa (after dialysis into ITC buffer) was treated with 200 μM 16F16 for 12-15 hours at 4° C. Next day the whole solution was loaded into the sample cell. LOC14 at 400 μM in ITC buffer was loaded into syringe and titrated into PDIa+16F16 loaded cell. For control experiments, ITC buffer with 200 μM 16F16 was used in the cell, while 400 μM LOC14 in ITC buffer was used in the syringe.
The binding mode of LOC14 to PDIa was next investigated using isothermal titration calorimetry (ITC). ITC measures the heat released or absorbed during a biomolecular interaction. It is a direct analytical method for determining the binding and thermodynamic parameters, such as reaction stoichiometry (n), binding constants (Ka and Kd), enthalpy (ΔH), entropy (ΔS), and free energy (ΔG) of an interaction.

[7] = Mouse microsome stability assay; format: in vitro ADME; conditions: compound 0.5 μM
Experimental: At 0, 5, 15, 30 and 45 minute intervals, an aliquot was taken and quenched with acetonitrile (ACN) containing internal standard. No-cofactor controls at 45 minutes were prepared. Following completion of the experimentation, the samples were analyzed by LC-MS/MS. […] C=initial×exp (−k×t). Intrinsic clearance (CLint) was calculated as liver clearance from the half-life using the following equation: CLint=k×(ml incubation/0.5 mg protein)×(52.5 mg protein/g liver). Results were reported as peak area ratios of analyte to internal standard. The intrinsic clearance (CLint) was determined from the first order elimination constant by non-linear regression. The microsome stability assay, plasma stability assay, and plasma protein binding assay were each performed by Alliance Pharma, Inc. (Malvern, Pa.).

[8] = Mouse plasma stability assay; format: in vitro ADME; conditions: compound 1.0 μM
Experimental: Test compound (1 μM) was incubated at 37° C. for up to 120 minutes in mouse plasma. At 0, 15, 30, 60, and 120 minute intervals an 100 μL aliquot was taken and quenched with 200 μL acetonitrile (ACN) containing internal standard. Following completion of the experimentation, the samples were analyzed by LC-MS/MS. The half-life (t1/2) was calculated using the following equation: t1/2=0.693/k, where, k is the elimination rate constant of test compounds obtained by fitting the data to the equation: C=initial×exp (−k×t). Results were reported as peak area ratios of analyte to internal standard.
The microsome stability assay, plasma stability assay, and plasma protein binding assay were each performed by Alliance Pharma, Inc. (Malvern, Pa.).

[9] = first site, Table 4, read-out: ITC KD1 (two binding site)
[10] = first site, Table 5, read-out: ITC Assay KD1 (2 binding sites)
[11] = PC-12, Table 5, read-out: Cell Viability Assay EC50

T1 sequence (P07237 with tags, fused parts or gaps): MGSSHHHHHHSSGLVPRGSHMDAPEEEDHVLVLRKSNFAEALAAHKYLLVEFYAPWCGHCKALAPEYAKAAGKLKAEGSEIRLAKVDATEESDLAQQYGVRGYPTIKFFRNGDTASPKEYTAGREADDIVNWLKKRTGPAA
T2 sequence (P07237 with tags, fused parts or gaps): as above

Structure (SMILES): O=c1c2ccccc2sn1Cc1ccccc1 [LC-5, 2-benzylbenzo[d]isothiazol-3(2H)-one]
Insulin Assay (either active or inactive) [1]: Active
Kd [2, 9]: 42.7 nM
Kd [2, 10]: 42.7 nM
Kd ([2]; read-out: ITC Assay KD2 (2 binding sites), second site, Table 5): 2270 nM
Solubility in DMSO (Solubility; Table 5): 100 mM in DMSO

Structure (SMILES): O=c1c2ccccc2[se]n1-c1ccccc1 [Ebselen, reference compound]
Kd [2, 9]: 5.2 nM
Kd ([2]; second site, Table 4, read-out: ITC KD2 (two binding site)): 111 nM
solubility (Solubility): Poor

Structure (SMILES): O=c1c2ccccc2sn1-c1ccccc1 [LC-24]
EC50 (PC12 mHTT^Q103 cells [3]; PC-12, read-out: Cell Viability Assay EC50): 1130 nM
Insulin Assay (either active or inactive) [1]: not active
Kd [2, 10]: 8.1 nM
solubility (physchem): 50 mM (≈ 11.4 mg/mL)

Structure (SMILES): COC(=O)C1(C)c2[nH]c3ccccc3c2CCN1C(=O)CCl (centres unmarked) [16F16, reference compound]
PDI's enzymatic activity after dilution of pre-formed complex ([1]; compound 750 μM + PDIa 500 μM, diluted 100-fold): still inhibited
EC50 (PC12 mHTT^Q103 cells [4]): 1000 nM
inhibition of PDI's reduction of insulin without dilution [5]: able to inhibit

Structure (SMILES): CCOc1ccc2ccc(=O)oc2c1 [7-Ethoxycoumarin, reference compound]
Elimination rate constant (k) ([7]; mouse liver microsomes): 0.2341
Intrinsic Clearance (CLint), mL/min/g liver ([7]; mouse liver microsomes): 24.58 mL/min/g liver
half-life at 0.5 μM ([7]; mouse, liver microsomes, pH 7.4, mouse liver microsomes, read-out: Half-life (t1/2)): 3 min

Structure (SMILES): CCOC(=O)[C@H](CCc1ccccc1)N[C@@H](C)C(=O)N1CCC[C@H]1C(=O)O [Enalapril, reference compound]
% Remaining after 2-hour incubation [8]: 4.3%
Elimination rate constant (k) [8]: 0.0201
half-life at 1 μM ([8]; read-out: Half-life (t1/2) (converted)): 36 min

More lines, main results first:

Insulin Assay (either active or inactive) [1]: Active
Kd ([6]; Table 4, read-out: ITC KD): 94.3 nM
Kd ([6]; Table 5, read-out: ITC Assay KD): 94.3 nM
solubility (physchem): 50 mM (≈ 18.2 mg/mL)
Solubility in DMSO (Solubility; Table 5): 50 mM in DMSO
Structure (SMILES): CC(C)(C)OC(=O)NC1CCN(Cn2sc3ccccc3c2=O)CC1 [LC-8]
EC50 (PC12 mHTT^Q103 cells [3]; [11]): 384 nM

Insulin Assay (either active or inactive) [1]: Active
solubility (physchem): < 6.75 mM
solubility (Solubility): poor solubility
Solubility (words, printed in ITC Assay column) (Solubility; Table 5): poor solubility
Structure (SMILES): O=c1c2ccccc2sn1CN1CCN(Cn2sc3ccccc3c2=O)CC1 [LC-9, 2,2′-(piperazine-1,4-diylbis(methylene))bis(benzo[d]isothiazol-3(2H)-one)]
EC50 (PC12 mHTT^Q103 cells [3]; [11]): 173 nM
